Results: patent publication US20240287037A1, “CYCLOALKYL COMPOUNDS AND PHARMACEUTICAL COMPOSITIONS THAT MODULATE IKZF2” (Plexium, Inc., priority 2021, published 2024)
Read-outs that look alike come from different tables or passages of the source.

Key:
[1] = target: human E3 ligase component cereblon (CRBN) (Homo sapiens (Human), UniProt Q96SW2); test: Cereblon (CRBN) target engagement, NanoBRET TE Intracellular E3 Ligase Assay in transfected HEK-293T cells
Method: HEK-293T cells were harvested ca. 75% confluent with trypsin and plated (500,000 cells/well) in a 6-well tissue culture plate in 2 mL of Dulbecco's Modified Eagle Medium (DMEM)^+10% Fetal Bovine Serum (FBS) and incubated overnight at 37° C.
The NanoLue-CRBN fusion vector (Nluc-CRBN; Promega) contains the coding region of human E3 ligase component cereblon (CRBN) fused to the C-terminus of the NanoLuc luciferase coding region. A mixture of 10 ng Nluc-CRBN and 990 ng DDB1 Expression Vector (Promega) was added to 125 μL Opti-Minimum Essential Medium (Opti-MEM™; Thermo Fisher) along with 2 μL P3000 reagent (Thermo Fisher) in a 1.5 mL epppendorf tube. This solution was added to Lipofectamine 3000 transfection reagent (5 μL; Thermo Fisher) in Opti-MEM (125 μL), mixed well, and incubated for 15 minutes at room temperature. The transfection mixture was added dropwise to cells and incubated overnight at 37° C., 5% CO2. Following transfection, cells were washed once with PBS, and trypsin (250 μL) was added and incubated 30-45 see to dislodge cells. Complete media (2 mL) was added to resuspend cells to form a single cell suspension. Cells were centrifuged at 320×g for 5 min at room temperature, the supernatant was removed, and the cell pellet resuspended in Opti-MEM (3 mL; wash step repeated ×2). After final resuspension in 5 mL Opti-MEM, cells were counted and resuspended at 200,000 cells/mL in Opti-MEM.
Cereblon target engagement was monitored by Bioluminescence Resonance Energy Transfer (BRET) in transfected HEK-293T cells using the NanoBRET TE Intracellular E3 Ligase Assay (Promega). Briefly, 384-well plates (white opaque plates, Corning 3574, low binding surface) were seeded with transfected HEK-293T cells (38 μl/well). 2 μL of 10 μM CRBN tracer (diluted 1:5 in Tracer Dilution Buffer) was added to each well. Plates were centrifuged at 320×g for 1 min at room temperature. […] Plates were shaken for 2 minutes on a microplate shaker to mix compounds. Plates were centrifuged at 320×g for 1 min at room temperature, and subsequently incubated for 2 hours at 37° C.
After incubation, plates were allowed to cool to room temperature for 15 minutes. 20 μL of 3X Complete NanoBRET™ Nano-Glo® Substrate plus Inhibitor Solution (Promega, 1:166 Substrate and 1:500 dilution of Extracellular NanoLuc® Inhibitor diluted in Opti-MEM) were added to each well, Plates were incubated with shaking at room temperature for 3 minutes covered with foil. Plates were read on a CLARIOstar microplate reader (BMG LabTech), measuring at 450 nm (donor emission) and 610 nm (acceptor emission). The IC50 values were determined by regression to best fit four-parameter logistic curves using GraphPad Prism.

[2] = target: IKZF3 (Aiolos) (Homo sapiens (Human), UniProt Q96SW2+Q9UKT9); test: IKZF3 reporter degradation assay (HEK 293T IKZF3-mNeonGreen reporter cell line); type: cell-based; conditions: HEK 293T reporter cells, 24 hour incubation
Chain of IKZF3 (Aiolos) (Q9UKT9 whole entry, the tested form may be a part): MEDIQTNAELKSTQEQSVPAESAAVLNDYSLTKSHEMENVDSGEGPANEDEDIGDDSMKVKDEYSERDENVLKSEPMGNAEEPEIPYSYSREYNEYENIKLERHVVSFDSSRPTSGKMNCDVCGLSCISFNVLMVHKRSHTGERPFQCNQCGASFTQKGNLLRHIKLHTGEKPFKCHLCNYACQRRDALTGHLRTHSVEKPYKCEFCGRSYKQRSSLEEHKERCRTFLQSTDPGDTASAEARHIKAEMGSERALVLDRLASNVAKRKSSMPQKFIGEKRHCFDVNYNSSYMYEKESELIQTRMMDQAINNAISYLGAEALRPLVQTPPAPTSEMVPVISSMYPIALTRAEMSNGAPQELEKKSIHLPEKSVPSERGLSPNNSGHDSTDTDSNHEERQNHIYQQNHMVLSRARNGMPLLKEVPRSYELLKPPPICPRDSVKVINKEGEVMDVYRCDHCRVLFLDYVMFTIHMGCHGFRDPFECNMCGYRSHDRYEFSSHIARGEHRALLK
Chain of IKZF3 (Aiolos) (Q96SW2 whole entry, the tested form may be a part): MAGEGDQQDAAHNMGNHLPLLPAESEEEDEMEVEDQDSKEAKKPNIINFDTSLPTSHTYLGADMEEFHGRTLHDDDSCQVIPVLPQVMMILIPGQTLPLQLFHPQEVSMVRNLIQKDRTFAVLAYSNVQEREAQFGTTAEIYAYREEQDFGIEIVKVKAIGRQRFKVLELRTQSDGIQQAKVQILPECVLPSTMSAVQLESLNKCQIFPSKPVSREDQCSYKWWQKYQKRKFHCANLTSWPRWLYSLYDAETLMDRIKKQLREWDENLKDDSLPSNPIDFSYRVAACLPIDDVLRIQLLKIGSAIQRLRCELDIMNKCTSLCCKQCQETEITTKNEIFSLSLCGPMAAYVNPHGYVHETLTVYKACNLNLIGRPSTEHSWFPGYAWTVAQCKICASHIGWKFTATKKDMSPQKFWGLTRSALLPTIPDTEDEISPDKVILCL
Chain of IKZF3 (Aiolos) (Q16531 whole entry partner, the tested form may be a part): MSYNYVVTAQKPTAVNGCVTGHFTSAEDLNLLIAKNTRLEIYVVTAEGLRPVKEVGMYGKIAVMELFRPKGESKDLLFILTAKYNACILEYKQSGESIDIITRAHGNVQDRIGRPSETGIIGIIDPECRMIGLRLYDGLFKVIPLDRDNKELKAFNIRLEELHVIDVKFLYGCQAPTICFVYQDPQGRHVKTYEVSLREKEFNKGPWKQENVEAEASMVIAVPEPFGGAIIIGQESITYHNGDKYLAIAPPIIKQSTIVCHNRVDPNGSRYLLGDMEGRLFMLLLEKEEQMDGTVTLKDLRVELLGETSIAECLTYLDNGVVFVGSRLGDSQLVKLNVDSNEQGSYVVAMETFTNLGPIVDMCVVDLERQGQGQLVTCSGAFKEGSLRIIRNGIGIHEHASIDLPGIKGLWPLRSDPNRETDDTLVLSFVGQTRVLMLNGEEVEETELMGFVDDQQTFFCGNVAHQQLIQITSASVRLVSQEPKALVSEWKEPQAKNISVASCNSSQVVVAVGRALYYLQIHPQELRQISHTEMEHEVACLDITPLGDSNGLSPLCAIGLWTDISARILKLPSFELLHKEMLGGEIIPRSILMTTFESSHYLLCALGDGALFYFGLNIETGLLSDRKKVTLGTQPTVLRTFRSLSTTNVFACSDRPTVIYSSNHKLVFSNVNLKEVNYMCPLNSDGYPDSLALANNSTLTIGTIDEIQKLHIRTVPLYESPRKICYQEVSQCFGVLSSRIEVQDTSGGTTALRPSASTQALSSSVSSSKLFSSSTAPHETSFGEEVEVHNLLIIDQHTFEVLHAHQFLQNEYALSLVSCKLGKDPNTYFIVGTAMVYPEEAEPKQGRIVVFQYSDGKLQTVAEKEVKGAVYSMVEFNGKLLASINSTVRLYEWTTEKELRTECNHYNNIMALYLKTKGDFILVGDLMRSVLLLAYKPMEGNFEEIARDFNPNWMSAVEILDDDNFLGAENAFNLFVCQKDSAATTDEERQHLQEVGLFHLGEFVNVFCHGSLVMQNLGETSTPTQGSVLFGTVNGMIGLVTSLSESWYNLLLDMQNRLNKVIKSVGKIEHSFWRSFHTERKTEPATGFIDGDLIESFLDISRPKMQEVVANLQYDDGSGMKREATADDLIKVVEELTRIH
Excerpt: Polycistronic plasmids were constructed for the mammalian expression of fluorescent reporter fusions of human transcription factors IKZF1 (Ikaros), IKZF2 (Helios), and IKZF3 (Aiolos). The respective protein sequences had their C-terminal end joined to a GGGGS linker repeated three times followed by mNeonGreen, P2A sequence, and mScarlet. The DNA sequences of the open reading frames are as follows:
IKZF1, IKZF2, and IKZF3 constructs were cloned into the UCOE Hygromycin expression vectors (Millipore Sigma). Reporter constructs were transfected using cationic lipid reagents into adherent HEK 293T cells and stable integrants were selected by treatment with 200 μg/mL hygromycin B. Clonal populations were obtained from the population of stable integrants either by limiting dilution or fluorescence activated cell sorting.
The clonal stable cell lines were maintained under constant 200 μg/mL hygromycin B selection while being passaged for use in the degradation assays. […] The fluorescence intensity of the IKZF1/2/3-mNeonGreen (FITC channel) and mScarlet (PE channel) reporters were routinely analyzed by flow cytometry to confirm consistent expression levels between experiments.
The IKZF1/IKZF2/IKZF3 degradation assays were carried out by harvesting the HEK 293T reporter cell lines and resuspending the cells in media formulated for reduced background fluorescence (FluoroBrite; Thermo Fisher). The respective cell lines were seeded at a density of 4000 cells/well into black-walled 384-well optical grade assay tissue culture plates. The cells were incubated overnight at 37° C. to allow for attachment to the assay plate. Dilutions of the compounds were prepared in DMSO from 10 mM compound stocks. The assay plates were treated with appropriate concentrations of the compounds by dispensing the DMSO dilutions in quadruplicate wells with an upper limit of 0.5% final DMSO.
After 24 hour incubation with the compounds, the assay plates were imaged on an ImageXpress Pico microscopy system (cells maintained at 37° C. during imaging) to obtain the fluorescent readouts. The assay plates were imaged in the FITC and Tetramethylrhodamine (TRITC) channels to obtain the mNeonGreen fluorescence intensity (reporter degradation data) and mScarlet fluorescence intensity (for cell segmentation). 293T-IKZF1 and 293T-IKZF3 reporter cell lines were imaged with exposures of 500 milliseconds (ms) for both FITC and TRITC channels, while the 293T-IKZF2 reporter cell line was imaged with exposures of 1000 ms for FITC and 1250 ms for TRITC. The resulting data was analyzed with Cell Reporter Xpress software using the 2-channel cell scoring analysis with a “percent positive” readout. The TRITC channel was selected for the “nuclei” segmentation with a threshold of 20 while the FITC channel was selected for the “Marker 1” segmentation and a threshold of 100 for the IKZF and IKZF3 reporter lines. […] The minimum segmentation width was set to 6 micrometers and the maximum segmentation width was set to 15 micrometers for all cell lines. The DC50 calculations were determined by regression to best fit four-parameter logistic curves using GraphPad Prism.

[3] = Table 3, 2 hours at 37° C., read-out: CRBN Binding EC50
[4] = second (untitled) table after Table 3, read-out: CRBN Binding EC50

Chain of human E3 ligase component cereblon (CRBN) (Q96SW2 whole entry): as the sequence (Q96SW2 whole entry, the tested form may be a part) above
Chain of human E3 ligase component cereblon (CRBN) (Q16531 whole entry partner): as the sequence (Q16531 whole entry partner, the tested form may be a part) above

Row | Compound | EC50 [1, 3] [nM] | EC50 [1, 4] [nM] | DC50 [2] [nM] | IKZF3% Degradation @ 1 μM ([2]; 1 μM) [%]
1 | O=C1CCC(N2Cc3cc(O[C@H]4CCCC[C@@H]4N4CC(C5CCC5)C4)c(F)cc3C2=O)C(=O)N1 (stereo partly drawn) [Compound 27, 3-(5-(((1S,2S)-2-(3-cyclobutylazetidin-1-yl)cyclohexyl)oxy)-6-fluoro-1-oxoisoindolin-2-yl)piperidine-2,6-dione] | 18 | 18 | > 30000 | 
2 | O=C1CCC(N2Cc3cc(O[C@H]4CCCC[C@@H]4N4CC(C5CCCC(F)(F)C5)C4)ccc3C2=O)C(=O)N1 (stereo partly drawn) [Compound 20, 3-(5-(((1S,2S)-2-(3-(3,3-difluorocyclohexyl)azetidin-1-yl)cyclohexyl)oxy)-1-oxoisoindolin-2-yl)piperidine-2,6-dione] | 4 | 4 | > 30000 | 
3 | CC(C)OC1CCC(C2CN([C@H]3CCCC[C@@H]3Oc3ccc4c(c3)CN(C3CCC(=O)NC3=O)C4=O)C2)CC1 (stereo partly drawn) [Compound 17, 3-(5-(((1S,2S)-2-(3-((trans)-4-isopropoxycyclohexyl)azetidin-1-yl)cyclohexyl)oxy)-1-oxoisoindolin-2-yl)piperidine-2,6-dione] | 1 | 1 | > 30000 | 
4 | O=C1CCC(N2Cc3cc(O[C@H]4CCCC[C@@H]4N4CC(C5CCCCC5)C4)ccc3C2=O)C(=O)N1 (stereo partly drawn) [Compound 1, 3-(5-(((1S,2S)-2-(3-cyclohexylazetidin-1-yl)cyclohexyl)oxy)-1-oxoisoindolin-2-yl)piperidine-2,6-dione] | 3 | 3 | > 30000 | 
5 | CCOC1CCC(C2CN([C@H]3CCCC[C@@H]3Oc3ccc4c(c3)CN(C3CCC(=O)NC3=O)C4=O)C2)CC1 (stereo partly drawn) [Compound 19, 3-(5-(((1S,2S)-2-(3-(4-ethoxycyclohexyl)azetidin-1-yl)cyclohexyl)oxy)-1-oxoisoindolin-2-yl)piperidine-2,6-dione] | 1 | 1 | > 30000 | 
6 | O=C1CCC(N2Cc3cc(O[C@H]4CCC[C@@H]4N4CC(C5CC5)C4)ccc3C2=O)C(=O)N1 (stereo partly drawn) [Compound 22, 3-(5-(((1S,2S)-2-(3-cyclopropylazetidin-1-yl)cyclopentyl)oxy)-1-oxoisoindolin-2-yl)piperidine-2,6-dione] | 22 | 22 | > 30000 | 
7 | O=C1CCC(N2Cc3cc(O[C@H]4CCCC[C@@H]4N4CC(C5CC5)C4)ccc3C2=O)C(=O)N1 (stereo partly drawn) [Compound 3, 3-(5-(((1S,2S)-2-(3-cyclopropylazetidin-1-yl)cyclohexyl)oxy)-1-oxoisoindolin-2-yl)piperidine-2,6-dione] | 9 | 9 | > 30000 | 
8 | O=C1CCC(N2Cc3c(ccc(O[C@H]4CCCC[C@@H]4N4CC(C5CC5)C4)c3F)C2=O)C(=O)N1 (stereo partly drawn) [Compound 24, 3-(5-(((1S,2S)-2-(3-cyclopropylazetidin-1-yl)cyclohexyl)oxy)-4-fluoro-1-oxoisoindolin-2-yl)piperidine-2,6-dione] | 49 | 49 | > 30000 | 

Other lines, results leading:

Row | EC50 [1, 3] [nM] | EC50 [1, 4] [nM] | DC50 [2] [nM] | IKZF3% Degradation @ 1 μM ([2]; 1 μM) [%] | Compound
9 | 16 | 16 | > 30000 |  | O=C1CCC(N2Cc3cc(O[C@H]4CCCC[C@@H]4N4CC(C5CC5)C4)c(F)cc3C2=O)C(=O)N1 (stereo partly drawn) [Compound 26, 3-(5-(((1S,2S)-2-(3-cyclopropylazetidin-1-yl)cyclohexyl)oxy)-6-fluoro-1-oxoisoindolin-2-yl)piperidine-2,6-dione]
10 | 1 | 1 | 6 | 32.4 | O=C1CCC(N2Cc3cc(O[C@H]4CCCC[C@@H]4N4CC(C5CCC(OC(F)F)CC5)C4)ccc3C2=O)C(=O)N1 (stereo partly drawn) [Compound 21, 3-(5-(((1S,2S)-2-(3-(4-(difluoromethoxy)cyclohexyl)azetidin-1-yl)cyclohexyl)oxy)-1-oxoisoindolin-2-yl)piperidine-2,6-dione]
11 | 9 | 9 | > 30000 |  | O=C1CCC(N2Cc3cc(O[C@H]4CCCC[C@@H]4N4CC(C5CCC5)C4)ccc3C2=O)C(=O)N1 (stereo partly drawn) [Compound 5, 3-(5-(((1S,2S)-2-(3-cyclobutylazetidin-1-yl)cyclohexyl)oxy)-1-oxoisoindolin-2-yl)piperidine-2,6-dione]
12 | 12 | 12 | > 30000 |  | O=C1CCC(N2Cc3cc(O[C@H]4CCCC[C@@H]4N4CC(C5CC(F)(F)C5)C4)ccc3C2=O)C(=O)N1 (stereo partly drawn) [Compound 18, 3-(5-(((1S,2S)-2-(3-(3,3-difluorocyclobutyl)azetidin-1-yl)cyclohexyl)oxy)-1-oxoisoindolin-2-yl)piperidine-2,6-dione]
13 | 5 | 5 | > 30000 |  | O=C1CCC(N2Cc3cc(O[C@H]4CCC[C@@H]4N4CC(C5CCC(F)(F)CC5)C4)ccc3C2=O)C(=O)N1 (stereo partly drawn) [Compound 13, 3-(5-(((1S,2S)-2-(3-(4,4-difluorocyclohexyl)azetidin-1-yl)cyclopentyl)oxy)-1-oxoisoindolin-2-yl)piperidine-2,6-dione]
14 | 2 | 2 | > 30000 |  | CC(C)OC1CCC(C2CN([C@H]3CCCC[C@@H]3Oc3ccc4c(c3)CN(C3CCC(=O)NC3=O)C4=O)C2)CC1 (stereo partly drawn) [Compound 16, 3-(5-(((1S,2S)-2-(3-((cis)-4-isopropoxycyclohexyl)azetidin-1-yl)cyclohexyl)oxy)-1-oxoisoindolin-2-yl)piperidine-2,6-dione]
15 | 5 | 5 | > 30000 |  | O=C1CCC(N2Cc3cc(O[C@H]4CCCC[C@@H]4N4CC(C5CCCC5)C4)ccc3C2=O)C(=O)N1 (stereo partly drawn) [Compound 6, 3-(5-(((1S,2S)-2-(3-cyclopentylazetidin-1-yl)cyclohexyl)oxy)-1-oxoisoindolin-2-yl)piperidine-2,6-dione]
16 | 28 | 28 | > 30000 |  | O=C1CCC(N2Cc3c(ccc(O[C@H]4CCCC[C@@H]4N4CC(C5CCC5)C4)c3F)C2=O)C(=O)N1 (stereo partly drawn) [Compound 25, 3-(5-(((1S,2S)-2-(3-cyclobutylazetidin-1-yl)cyclohexyl)oxy)-4-fluoro-1-oxoisoindolin-2-yl)piperidine-2,6-dione]
